# Measured values: ChEMBL document CHEMBL4219105, “Novel polyamine-based Histone deacetylases-Lysine demethylase 1 dual binding inhibitors” (Bioorg Med Chem Lett, 2018)
# Columns and labels:
# MCF7 [1] = assay: Cytotoxic activity against human MCF7 cells assessed as reduction in cell viability at 70 uM after 24 hrs by MTT assay relative to control; assay type: functional
# MCF7 [2] = assay: Cytotoxic activity against human MCF7 cells assessed as reduction in cell viability at 4 uM after 24 hrs by MTT assay relative to control; assay type: functional
# MCF7 [3] = assay: Cytotoxic activity against human MCF7 cells assessed as reduction in cell viability at 16 uM after 24 hrs by MTT assay relative to control; assay type: functional
# HDAC1/REST corepressor 3 [4] = target: T1, HDAC1/REST corepressor 3 (Homo sapiens, UniProt Q13547+Q9P2K3)
# T1 sequence (Q13547 whole entry, other chains not shown): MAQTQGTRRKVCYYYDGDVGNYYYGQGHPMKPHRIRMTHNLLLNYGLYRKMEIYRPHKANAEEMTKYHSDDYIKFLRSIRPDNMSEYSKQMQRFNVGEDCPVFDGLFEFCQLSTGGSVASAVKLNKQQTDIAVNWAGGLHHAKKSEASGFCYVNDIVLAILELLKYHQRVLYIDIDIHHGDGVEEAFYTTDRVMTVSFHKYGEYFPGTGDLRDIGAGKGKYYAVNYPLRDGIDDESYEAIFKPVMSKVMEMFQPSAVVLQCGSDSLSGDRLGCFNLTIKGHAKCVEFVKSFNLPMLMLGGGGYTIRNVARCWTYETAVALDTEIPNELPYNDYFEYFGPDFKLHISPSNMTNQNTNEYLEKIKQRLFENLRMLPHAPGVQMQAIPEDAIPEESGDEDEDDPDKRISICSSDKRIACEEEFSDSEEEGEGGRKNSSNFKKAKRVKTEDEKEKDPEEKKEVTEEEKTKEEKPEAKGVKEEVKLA
# Description: (§1) Inhibition of HDAC1/CoREST3 in HEK293 whole cell extract using fluorescent acetylated histone peptide as substrate after 60 mins by fluorescence based assay
# MCF7 [5] = assay: cells; assay type: functional, cell-based; conditions: Homo sapiens, MCF7, 24 h
# Description: Cytotoxic activity against human MCF7 cells after 24 hrs by MTT assay
# [6] = target: T2, Histone deacetylase (Homo sapiens) (UniProt Q13547+O15379+Q9UBN7+Q92769+Q9UQL6+Q8WUI4+Q9BY41+Q96DB2+P56524+Q9UKV0+Q969S8); assay: Inhibition of HDAC in human MCF7 cell nuclear extract using acetylated lysine as substrate at 70 uM after 1 hr by colorimetric analysis relative to control; assay type: protein assay
# [7] = target: T3, Lysine-specific histone demethylase 1A/REST corepressor (Homo sapiens, UniProt O60341+Q9P2K3)
# Description: (§2) Inhibition of human recombinant LSD1/CoREST3 expressed in Escherichia coli using monomethylatedH3meK4 peptide as substrate preincubated for 15 mins followed by substrate addition measured after 12 mins by fluorescence based assay
# [8] = target: T3, Lysine-specific histone demethylase 1A/REST corepressor; remark: listed apart in the source
# Description: as §2
# HDAC1/REST corepressor 3 [9] = target: T1, HDAC1/REST corepressor 3; remark: listed apart in the source
# Description: as §1
# MCF7 [10] = assay: Cytotoxic activity against human MCF7 cells assessed as reduction in cell viability at 35 uM after 24 hrs by MTT assay relative to control; assay type: functional
# [11] = target: T2, Histone deacetylase (Homo sapiens); assay: Inhibition of HDAC in human MCF7 cell nuclear extract using acetylated lysine as substrate at 17 uM after 1 hr by colorimetric analysis relative to control; assay type: protein assay
Ki (HDAC1/REST corepressor 3 [4]),IC50 (MCF7 [5]),inhibition [6],IC50 [7],IC50 [8],Ki (HDAC1/REST corepressor 3 [9]),inhibition [11],SMILES,Activity (MCF7 [1]),Activity (MCF7 [2]),Activity (MCF7 [3]),Activity (MCF7 [10])
,,,,,,,O=C(CCCCCCC(=O)Nc1ccccc1)NO [VORINOSTAT],56.6%,20.8%,49.3%,
0.0269 µM,60.2 µM,35.8%,2.4 µM,,,,Cl.Cl.N[C@@H]1C[C@H]1c1ccc(NC(=O)CCC(=O)NCCCNCCCNC(=O)c2ccc(NC(=O)CCCCCCC(=O)NO)cc2)cc1,52%,,,
,,,,Nd(Insoluble),Nd(Insoluble),,Cl.Cl.Cl.N[C@@H]1C[C@H]1c1ccc(NC(=O)CCC(=O)NCCCCCCNCCCCCCCCNCCCCCCNC(=O)c2ccc(NC(=O)CCCCCCC(=O)NO)cc2)cc1,,,,
0.0425 µM,39.6 µM,,3.85 µM,,,50.2%,Cl.Cl.Cl.N[C@@H]1C[C@H]1c1ccc(NC(=O)CCC(=O)NCCCNCCCCNCCCNC(=O)c2ccc(NC(=O)CCCCCCC(=O)NO)cc2)cc1,68.6%,16.3%,,52.7%
